Target: T1, DNA polymerase theta [1-894] (UniProt O75417)
T1 construct: 1-894
Experiment: Biochemical Pol Theta (1-894) ATPase IC50 Assay
Method: The inhibition activities testing for the compound disclosed herein were carried out at room temperature in assay buffer containing 40 mM Tris pH 7.5, 20 mM MgCl2, 1 mM DTT, 0.01% BSA and 0.05% Tween-20. […] After 1 hour reaction, 5 μL ADP-Glo reagent (Promga V9102) was added and incubated for 40 minutes. 10 μL Kinase Detection reagent was added and incubated for 40 minutes. Luminescence was measured on a microplate reader (PHERAstar FSX, BMG labtech). The IC50 values were calculated based on inhibition of enzyme activity in the presence of increasing concentrations of compounds.

T1 sequence (O75417 1-894): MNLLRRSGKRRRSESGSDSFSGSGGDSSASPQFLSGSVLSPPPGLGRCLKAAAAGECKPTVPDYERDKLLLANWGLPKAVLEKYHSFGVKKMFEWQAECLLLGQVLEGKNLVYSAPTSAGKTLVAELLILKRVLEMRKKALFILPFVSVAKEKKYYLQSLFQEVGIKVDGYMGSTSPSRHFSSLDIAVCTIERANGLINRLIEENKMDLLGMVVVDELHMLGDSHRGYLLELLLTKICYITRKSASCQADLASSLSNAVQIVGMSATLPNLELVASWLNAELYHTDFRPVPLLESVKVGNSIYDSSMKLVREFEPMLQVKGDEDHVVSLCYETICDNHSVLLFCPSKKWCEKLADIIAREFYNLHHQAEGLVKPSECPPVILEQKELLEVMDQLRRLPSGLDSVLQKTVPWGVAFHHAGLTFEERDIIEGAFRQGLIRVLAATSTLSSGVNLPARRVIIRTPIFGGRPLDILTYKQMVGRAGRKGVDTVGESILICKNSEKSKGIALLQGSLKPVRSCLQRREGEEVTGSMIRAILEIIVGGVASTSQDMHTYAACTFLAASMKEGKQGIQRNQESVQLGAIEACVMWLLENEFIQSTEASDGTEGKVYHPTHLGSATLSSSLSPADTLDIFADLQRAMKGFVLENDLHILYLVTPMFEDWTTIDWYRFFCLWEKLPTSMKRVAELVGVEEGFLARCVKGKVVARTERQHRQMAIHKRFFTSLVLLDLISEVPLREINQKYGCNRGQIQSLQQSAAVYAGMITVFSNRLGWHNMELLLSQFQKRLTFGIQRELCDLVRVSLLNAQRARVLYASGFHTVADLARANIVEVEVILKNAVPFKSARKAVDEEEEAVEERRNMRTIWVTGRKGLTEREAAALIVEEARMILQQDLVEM

Compound: COc1ccccc1-c1cnncc1C(=O)Nc1nc2ccc(-c3ccc(Cl)cc3OC(C)C)nc2s1 [US20250026766, Example 143]
- IC50: 0.022 µM

Compound: Cc1ccc(-c2ccc3nc(NC(=O)c4ccc(C#N)nc4N4CCOCC4)sc3n2)cc1 [US20250026766, Example 4]
- IC50: 1.56 µM

— BindingDB's records for patent US20250026766 (Beigene, 2025)
